Experimental data: patent publication US11773087B2, “GLP-1R receptor agonist compound and use thereof” (SUZHOU VINCENTAGE PHARMA CO., LTD, priority 2020, dated 2023)
Like-named read-outs stand apart in the source and are kept apart here.

How the values were obtained:
human GLP-1R receptor = molecular target: T1, human GLP-1R receptor (Homo sapiens, UniProt P43220); experiment: GLP-1R cAMP assay (HTRF, HEK293 cells expressing GLP-1R); type: cell-based; details: agonistic activity, GLP-1R HEK293 cells
T1 construct: expressed in transfected cells; host or cells: 'GLP-1R cells' (frozen vial)
Procedure: Test Embodiment 1: Activity Test of GLP-1R cAMP Assay
This experiment aims to verify the agonistic activity of the compound of the present disclosure on human GLP-1R receptor.
Compounds were diluted 4-fold starting at 100 μM from DMSO using Bravo for a total of 10 points.
The reference compound polypeptide GLP-1 (7-37) was diluted 4-fold starting from 500 nM in DMSO using Bravo for a total of 10 points.
b) Preparation of Cell Suspension: • 1) 1 vial of GLP-1R cells was quickly thawed in a 37° C. water bath. • 2) The suspension of the cells was transferred to 10 mL of HBSS in a 15 mL conical tube. • 3) The cells were centrifuged at 1000 rpm for 5 min at room temperature to precipitate the cells. • 4) The supernatant was gently aspirated, and being careful not to aspirate the cells. • 5) The cells were relaxed by flicking the precipitation, and then the cell precipitation was re-suspended in 10 mL of HBSS. A sterile pipette was used to move fluid up and down to remove clumps. • 6) The concentration of cells was counted and the cell viability on Vi-cell was determined. • 7) GLP-1R cells were re-suspended in the test buffer at a concentration of 2.0×E5/mL cells. • 8) 10 μL of GLP-1R cell was transferred to OptiPlate-384 well plate.
c) Transfer of Compound: • 1) 100 nL of compound was transferred to OptiPlate-384 plate using Echo Transfer. • 2) The plate was rotated at 1000 rpm for 5 seconds.
d) HTRF cAMP Analysis of Agonists: • 1) The plate was incubated at room temperature for 30 minutes before adding detection reagents. • 2) An electric multi-channel pipette was used to add 10 μL of detection reagents respectively. • 3) The 384 well plate was covered with TopSeal-A membrane and incubated for 60 min at room temperature.
TopSeal-A was unloaded and read on EnVision.

[1] = Pharmacokinetic evaluation in rats (gavage); type: in vivo; details: rat, 10 mg/kg single oral gavage, plasma
Procedure: Test Embodiment 2: Pharmacokinetic Evaluation in Rats
The drug concentrations in the plasma of rats were tested at different times after the administration of the compounds by gavage using rats as test animals. The pharmacokinetic behavior of the compounds of the present disclosure in rats was studied and their pharmacokinetic characteristics were evaluated. In each group of embodiments, 3 rats with similar body weight were selected and administered orally at a dose of 10 mg/kg for a single administration. Blood was collected from animals at 15 min, 30 min, 1 h, 2 h, 4 h, 6 h, 8 h, 12 h, 24 h time points after administration. The LC-MS/MS analysis method was used to detect the content of the compound in plasma, and the lower limit of quantification of the method was 20 ng/mL. Concentration data in plasma was counted using the metabolic kinetic data analysis software WinNonlin 7.0, and the pharmacokinetic parameters were calculated using the non-compartmental analysis (NCA), as shown in Table 2 below.
Drug configuration: A certain amount of drug was taken, added with 2% Klucel LF+0.1% Tween 80 aqueous solution to prepare a clear solution or a uniform suspension.
Administration: Rats were administered by gavage after overnight fasting at a dose of 10 mg/kg.
Operation: Rats were administered by gavage, and blood was collected from the tail vein before administration and 15 min, 30 min, 1 h, 2 h, 4 h, 6 h, 8 h, 12 h, 24 h after administration, placed in heparinized sample tubes, centrifuged at 4° C., 3500 rpm for 10 min to separate plasma, stored at −20° C., and fed 2 hours after administration.
Determination of the content of test compounds in rat plasma after drug administration by gavage: 50 μL of plasma samples were thawed at room temperature, added with 130 μL of internal standard working solution (1000 ng/mL, acetonitrile, tolbutamide), vortexed for about 1 min and then centrifuged for 10 min at 4° C. and 13000 rpm. 50 μL of supernatant was mixed with 100 μL of 50% acetonitrile in water, and then the sample was injected for LC/MS/MS analysis.

[2] = Pharmacokinetic evaluation of cynomolgus monkey (IV and oral); type: in vivo, cynomolgus monkeys; details: for AUC(0-t): read-out: AUC0-24 h
Procedure: Test Embodiment 3: Pharmacokinetic Evaluation of Cynomolgus Monkey
The drug concentrations in the plasma of cynomolgus monkeys were tested at different times after intravenous injection and oral administration of the compounds using cynomolgus monkeys as test animals. The pharmacokinetic behavior of the compounds of the present disclosure in cynomolgus monkeys was studied and their pharmacokinetic characteristics were evaluated. In each group of embodiments, 2 cynomolgus monkeys with similar body weight were selected, administered at a dose of 1 mg/kg by intravenous injection and at a dose of 50 mg/kg by oral administration for a single administration.
Age of cynomolgus monkeys at the time of administration: about 2-4 years old; body weight: 3.0-4.6 kg at the beginning of administration; 4 monkeys; sex: male.
Intravenous group: The final concentration of 0.5 mg/mL was prepared for intravenous administration, and the preparation solvent was 5% DMSO+45% PEG400+50% water, and the preparation was in a clarified solution.
Oral group: The final concentration of 10 mg/mL was prepared for oral administration, and the preparation solvent was 5% DMSO+45% PEG400+50% water, and the preparation was in homogeneous suspension.
Blood was collected from animals at 5 min, 15 min, 30 min, 1 h, 2 h, 4 h, 7 h, 12 h, 24 h time points after administration. The LC-MS/MS analysis method was used to detect the content of the compound in plasma, and the lower limit of quantification of the method was 20 ng/mL. Concentration data in plasma was counted using the metabolic kinetic data analysis software WinNonlin 7.0, and the pharmacokinetic parameters were calculated using the non-compartmental analysis (NCA), as shown in Table 3 below.
Determination of the content of test compounds in the plasma of cynomolgus monkeys after drug administration: After blood samples were collected, placed in a marked ice-bath centrifuge tube, and rapidly centrifuged to separate the plasma. Centrifugation conditions: 4000 rpm, 10 minutes, 4° C., and plasma was stored at −40° C. or less for testing.

T1 sequence (P43220 24-463): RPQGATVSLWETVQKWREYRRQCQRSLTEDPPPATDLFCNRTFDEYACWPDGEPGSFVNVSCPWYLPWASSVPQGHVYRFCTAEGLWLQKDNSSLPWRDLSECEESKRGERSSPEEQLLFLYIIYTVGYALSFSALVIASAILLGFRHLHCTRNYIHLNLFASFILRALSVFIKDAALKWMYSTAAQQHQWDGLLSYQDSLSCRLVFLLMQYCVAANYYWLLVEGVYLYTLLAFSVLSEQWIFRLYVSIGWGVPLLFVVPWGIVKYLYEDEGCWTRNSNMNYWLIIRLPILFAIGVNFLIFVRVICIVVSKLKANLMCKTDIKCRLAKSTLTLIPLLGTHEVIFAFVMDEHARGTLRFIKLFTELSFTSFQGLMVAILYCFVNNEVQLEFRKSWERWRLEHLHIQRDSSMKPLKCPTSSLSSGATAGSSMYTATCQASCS

Row | Compound | EC50 (human GLP-1R receptor) [nM] | also measured
1 | N#Cc1ccc(COc2ccccc2C2CCN(Cc3nc4ccc(C(=O)O)cc4n3C[C@@H]3CCO3)CC2)c(F)c1 [Compound 1] | 3.4 | 
2 | N#Cc1ccc(COc2c(F)cccc2C2CCN(Cc3nc4ccc(C(=O)O)cc4n3C[C@@H]3CCO3)CC2)c(F)c1 [Compound 2] | 0.8 | 
3 | O=C(O)c1ccc2nc(CN3CCC(c4cccc(F)c4OCc4ccc(Cl)cc4F)CC3)n(C[C@@H]3CCO3)c2c1 [Compound 4] | 0.7 | AUC(0-inf) [1]: 417 ng·h/mL; Cmax [1]: 90 ng/mL; Tmax [1]: 0.83 h; half-life [1]: 2.11 h
4 | COc1cccc(C2CCN(Cc3nc4ccc(C(=O)O)cc4n3C[C@@H]3CCO3)CC2)c1OCc1ccc(Cl)cc1F [Compound 5] | 15 | 
5 | O=C(O)c1ccc2nc(CN3CCC(c4c(F)cccc4OCc4ccc(Cl)cc4F)CC3)n(C[C@@H]3CCO3)c2c1 [Compound 6] | 8.1 | 
6 | O=C(O)c1ccc2nc(CN3CCC(c4cccc(F)c4OCc4ccccc4F)CC3)n(C[C@@H]3CCO3)c2c1 [Compound 7] | 5 | 
7 | O=C(O)c1ccc2nc(CN3CCC(c4ccccc4OCc4ccc(F)cc4F)CC3)n(C[C@@H]3CCO3)c2c1 [Compound 8] | 3.2 | 
8 | O=C(O)c1ccc2nc(CN3CCC(c4ccccc4OCc4ccc(Cl)cn4)CC3)n(C[C@@H]3CCO3)c2c1 [Compound 9] | 34.8 | 
9 | CC(Oc1ccccc1C1CCN(Cc2nc3ccc(C(=O)O)cc3n2C[C@@H]2CCO2)CC1)c1ccc(Cl)cc1F (some centres unmarked) [Compound 10] | 26 | 
10 | O=C(O)c1ccc2nc(CN3CCC(c4ccccc4OCc4ccc(Cl)cc4Cl)CC3)n(C[C@@H]3CCO3)c2c1 [Compound 11] | 2.9 | 
11 | Cc1ccc(COc2ccccc2C2CCN(Cc3nc4ccc(C(=O)O)cc4n3C[C@@H]3CCO3)CC2)c(F)c1 [Compound 12] | 1 | AUC(0-inf) [1]: 1320 ng·h/mL; Cmax [1]: 1020 ng/mL; Tmax [1]: 0.25 h; half-life [1]: 2.68 h
12 | O=C(O)c1ccc2nc(CN3CCC(c4ccc(F)cc4OCc4ccc(Cl)cc4F)CC3)n(C[C@@H]3CCO3)c2c1 [Compound 13] | 5.8 | 
13 | O=C(O)c1ccc2nc(CN3CCC(c4cc(F)ccc4OCc4ccc(Cl)cc4F)CC3)n(C[C@@H]3CCO3)c2c1 [Compound 14] | 3.7 | 
14 | O=C(O)c1ccc2nc(CN3CCC(c4ccccc4NCc4ccc(Cl)cc4F)CC3)n(C[C@@H]3CCO3)c2c1 [Compound 15] | 7.5 | 
15 | CN(Cc1ccc(Cl)cc1F)c1ccccc1C1CCN(Cc2nc3ccc(C(=O)O)cc3n2C[C@@H]2CCO2)CC1 [Compound 16] | > 100 | 
16 | O=C(O)c1ccc2nc(CN3CCC(c4ccccc4SCc4ccc(Cl)cc4F)CC3)n(C[C@@H]3CCO3)c2c1 [Compound 17] | 53 | 

Row | Compound | EC50 (human GLP-1R receptor) [nM] | also measured
17 | O=C(O)c1ccc2nc(CN3CCN(c4ccccc4OCc4ccc(Cl)cc4F)CC3)n(C[C@@H]3CCO3)c2c1 [Compound 18] | 10.7 | 
18 | O=C(O)c1ccc2nc(CC3CCN(c4ccccc4OCc4ccc(Cl)cc4F)CC3)n(C[C@@H]3CCO3)c2c1 [Compound 19] | > 100 | 
19 | O=C(O)c1ccc2nc(Cc3ccc(-c4ccccc4OCc4ccc(Cl)cc4F)cc3)n(C[C@@H]3CCO3)c2c1 [Compound 20] | 24.6 | 
20 | O=C(O)c1ccc2nc(CC3CCC(c4ccccc4OCc4ccc(Cl)cc4F)CC3)n(C[C@@H]3CCO3)c2c1 (some centres unmarked) [Compound 21] | > 100 | 
21 | O=C(O)c1ccc2nc(CN3CCC(c4ccccc4OCc4ccc(Cl)cc4F)CC3)n(C[C@@H]3CCO3)c2n1 [Compound 22] | 2.1 | 
22 | O=C(O)c1ccc2nc(C3(N4CCC(c5ccccc5OCc5ccc(Cl)cc5F)CC4)CC3)n(C[C@@H]3CCO3)c2c1 [Compound 23] | > 100 | 
23 | Cn1c(CN2CCC(c3ccccc3OCc3ccc(Cl)cc3F)CC2)nc2ccc(C(=O)O)cc21 [Compound 24] | > 100 | 
24 | CCn1cncc1Cn1c(CN2CCC(c3ccccc3OCc3ccc(Cl)cc3F)CC2)nc2ccc(C(=O)O)cc21 [Compound 25] | > 100 | 
25 | [2H]C([2H])(Oc1ccccc1C1CCN(Cc2nc3ccc(C(=O)O)cc3n2C[C@@H]2CCO2)CC1)c1ccc(Cl)cc1F [Compound 26] | 1.8 | 
26 | [2H]C([2H])(c1nc2ccc(C(=O)O)cc2n1C[C@@H]1CCO1)N1CCC(c2ccccc2OCc2ccc(Cl)cc2F)CC1 [Compound 27] | 2.3 | 
27 | CC1(c2ccccc2OCc2ccc(Cl)cc2F)CCN(Cc2nc3ccc(C(=O)O)cc3n2C[C@@H]2CCO2)CC1 [Compound 28] | > 100 | 
28 | CC1CN(Cc2nc3ccc(C(=O)O)cc3n2C[C@@H]2CCO2)CCC1c1ccccc1OCc1ccc(Cl)cc1F (some centres unmarked) [Compound 29] | > 100 | 
29 | CC1CN(Cc2nc3ccc(C(=O)O)cc3n2C[C@@H]2CCO2)CC(C)C1c1ccccc1OCc1ccc(Cl)cc1F (some centres unmarked) [Compound 30] | > 100 | 
30 | N#Cc1ccc(COc2cccc(C3CCN(Cc4nc5ccc(C(=O)O)cc5n4C[C@@H]4CCO4)CC3)n2)c(F)c1 [PF-06882961, reference compound] |  | AUC(0-inf) [1]: 179 ng·h/mL; Cmax [1]: 55 ng/mL; Tmax [1]: 0.42 h; half-life [1]: 6.88 h; F ([2]; 50 mg/kg PO vs 1 mg/kg IV, oral bioavailability): 8.0%; Cmax ([2]; male, 1 mg/kg IV, plasma): 2220 ng/mL; Tmax ([2]; male, 1 mg/kg IV, plasma): 0.083 h; clearance ([2]; male, 1 mg/kg IV, plasma): 15.9 mL/min/kg; half-life ([2]; male, 1 mg/kg IV, plasma): 1.14 h; AUC(0-t) ([2]; male, 1 mg/kg IV, plasma): 1070 ng·h/mL; Cmax ([2]; male, 50 mg/kg PO, plasma): 2050 ng/mL; Tmax ([2]; male, 50 mg/kg PO, plasma): 1.75 h; half-life ([2]; male, 50 mg/kg PO, plasma): 10.9 h; concentration at 24 h ([2]; male, 50 mg/kg PO, plasma, 24 h, read-out: C24 h): 41.4 ng/mL; AUC(0-t) ([2]; male, 50 mg/kg PO, plasma): 4330 ng·h/mL
31 | O=C(O)c1ccc2nc(CN3CCC(c4cccc(OCc5ccc(Cl)cc5F)n4)CC3)n(C[C@@H]3CCO3)c2c1 [Ref-01, reference compound] | 1 | AUC(0-inf) [1]: 351 ng·h/mL; Cmax [1]: 105 ng/mL; Tmax [1]: 0.33 h; half-life [1]: 3.2 h
32 | O=C(O)c1ccc2nc(CN3CCC(c4cccnc4OCc4ccc(Cl)cc4F)CC3)n(C[C@@H]3CCO3)c2c1 [Ref-02, reference compound] | 1 | AUC(0-inf) [1]: 229 ng·h/mL; Cmax [1]: 171 ng/mL; Tmax [1]: 0.25 h; half-life [1]: 5.52 h
